Values belong to the molecule of their own block, whether it stands above or below them. Activity calls are given as the source filed them. The calls are words filed in the database; no cut-off is given here.
Assays:
[1] = Antiproliferative activity against human HS68 cells; type: cell-based
[2] = Antiproliferative activity against human MCF10A cells; type: cell-based; details: MCF-10A
[3] = Antiproliferative activity against human NHP5 cells; type: cell-based
[4] = test system: Plasmodium falciparum; test: Antiparasitic activity against Plasmodium falciparum 3D7 assessed as growth inhibition after 56 hrs; type: functional
[5] = Antiproliferative activity against human MDA231 cells; type: functional, cell-based; details: MDA-MB-231
[6] = Antiproliferative activity against human DU145 cells; type: functional, cell-based; details: DU-145
[7] = Antiproliferative activity against human SCC35 cells; type: functional, cell-based
[8] = test system: Plasmodium falciparum; test: Antiparasitic activity against Plasmodium falciparum Dd2 assessed as growth inhibition after 56 hrs; type: functional
[9] = test system: Plasmodium falciparum; test: Antiparasitic activity against Plasmodium falciparum 7G8 assessed as growth inhibition after 56 hrs; type: functional
[10] = Antiproliferative activity against human MCF7/ADR cells; type: functional, cell-based; details: NCI/ADR-RES
[11] = test system: Plasmodium falciparum; test: Antiparasitic activity against Plasmodium falciparum FCR-3/Gambia assessed as growth inhibition after 56 hrs; type: functional
[12] = test system: Plasmodium falciparum; test: Antiparasitic activity against chloroquine-sensitive Plasmodium falciparum 3D7; type: functional
[13] = test system: Plasmodium falciparum; test: Antiparasitic activity against chloroquine-resistant/verapamil-sensitive Plasmodium falciparum FCR-3/Gambia; type: functional
[14] = test system: Plasmodium falciparum; test: Antiparasitic activity against chloroquine-resistant/verapamil-insensitive Plasmodium falciparum 7G8; type: functional
[15] = test system: Plasmodium falciparum; test: Antiparasitic activity against chloroquine-resistant/verapamil-sensitive Plasmodium falciparum Dd2; type: functional
[16] = test system: Plasmodium falciparum; test: Antiparasitic activity against Plasmodium falciparum 3D7 assessed as growth inhibition; type: functional
[17] = test system: Plasmodium falciparum; test: Antiparasitic activity against Plasmodium falciparum Dd2 assessed as growth inhibition; type: functional
[18] = biological target: T1, Histone deacetylase (Homo sapiens) (UniProt Q13547+O15379+Q9UBN7+Q92769+Q9UQL6+Q8WUI4+Q9BY41+Q96DB2+P56524+Q9UKV0+Q969S8); test: Inhibition of HDAC (unknown origin) at 100 nM using Fluor-Lys as substrate relative to control; type: protein assay
[19] = biological target: T1, Histone deacetylase (Homo sapiens); test: Potency index, ratio of trichostatin A IC50 to compound IC50 for HDAC (unknown origin); type: protein assay
[20] = test system: Plasmodium falciparum; test: Antiparasitic activity against chloroquine-sensitive Plasmodium falciparum HB3; type: functional
[21] = test system: Plasmodium falciparum; test: Antiparasitic activity against chloroquine-resistant/verapamil-sensitive Plasmodium falciparum Dd2 assessed as growth inhibition in presence of chloroquine; type: functional
[22] = test system: Plasmodium falciparum; test: Potentiation of chloroquine-induced anitiparasitic activity in chloroquine-resistant/verapamil-sensitive Plasmodium falciparum FCB assessed as decrease in chloroquine IC50 relative to control; type: functional
[23] = test system: Plasmodium falciparum; test: Antiparasitic activity against chloroquine-resistant/verapamil-sensitive Plasmodium falciparum FCB; type: functional
[24] = test system: Plasmodium falciparum; test: Potentiation of chloroquine-induced anitiparasitic activity in chloroquine-resistant/verapamil-sensitive Plasmodium falciparum Dd2 assessed as decrease in chloroquine IC50 relative to control; type: functional
[25] = test system: Plasmodium falciparum; test: Antiparasitic activity against chloroquine-resistant/verapamil-sensitive Plasmodium falciparum VS/1; type: functional

Compound: N[C@@H](Cc1ccc(O)cc1)C(=O)Nc1ccccc1-c1ccc(NC(=O)CCCCCCC(=O)NO)cc1
IC50 [1]: > 300000 nM
IC50 [2]: > 100000 nM
IC50 [3]: 100000 nM

Compound: N[C@@H](Cc1ccccc1)C(=O)Nc1ccccc1-c1ccc(NC(=O)CCCCCCC(=O)NO)cc1
IC50 [2]: 100000 nM

Compound: O=C(CCCCCCC(=O)Nc1nc(-c2ccccc2)cs1)NO
growth inhibition (GI) [4]: Active
IC50 [5]: < 400 nM
IC50 [6]: 190 nM
IC50 [7]: 280 nM
growth inhibition (GI) [8]: Active
growth inhibition (GI) [9]: Active
IC50 [10]: 400 nM
growth inhibition (GI) [11]: Active

Compound: O=C(CCCCCCC(=O)Nc1nc(-c2cccc([N+](=O)[O-])c2)cs1)NO
IC50 [12]: 30 nM
growth inhibition (GI) [4]: Active
IC50 [5]: < 400 nM
IC50 [13]: 22 nM
IC50 [6]: 320 nM
IC50 [7]: 380 nM
IC50 [14]: 10 nM
growth inhibition (GI) [8]: Active
IC50 [15]: 12 nM
growth inhibition (GI) [9]: Active
IC50 [10]: 3000 nM
growth inhibition (GI) [11]: Active

Compound: O=C(CCCCCCC(=O)Nc1ccc(-c2ccccc2)cc1)NO
growth inhibition (GI) [16]: Active
IC50 [5]: < 400 nM
IC50 [6]: 580 nM
IC50 [7]: 100 nM
growth inhibition (GI) [9]: Active
growth inhibition (GI) [17]: Active
IC50 [10]: 350 nM

Compound: Nc1ccccc1-c1csc(NC(=O)CCCCCCC(=O)NO)n1
inhibition [18]: 2%

Compound: N[C@@H](Cc1c[nH]c2ccccc12)C(=O)Nc1ccccc1-c1ccc(NC(=O)CCCCCCC(=O)NO)cc1
IC50 [1]: > 300000 nM
IC50 [2]: > 100000 nM

Ratio IC50 [19]: 2
Compound: CCOC(=O)Nc1cccc(-c2csc(NC(=O)CCCCCCC(=O)NO)n2)c1
IC50 [6]: 520 nM
IC50 [7]: 190 nM

Compound: Nc1cccc(-c2csc(NC(=O)CCCCCCC(=O)NO)n2)c1
IC50 [12]: 1.25 nM
growth inhibition (GI) [4]: Active
IC50 [5]: < 400 nM
IC50 [6]: 320 nM
IC50 [7]: 100 nM
IC50 [14]: 0.175 nM
growth inhibition (GI) [8]: Active
growth inhibition (GI) [9]: Active
IC50 [20]: 0.9 nM
IC50 [10]: 3000 nM
growth inhibition (GI) [11]: Active
growth inhibition (GI) [21]: Active

Compound: Nc1ccccc1-c1ccc(NC(=O)CCCCCCC(=O)NO)cc1
growth inhibition (GI) [16]: Active
IC50 [5]: 1000 nM
IC50 [6]: 180 nM
IC50 [7]: 2580 nM
growth inhibition (GI) [9]: Active
growth inhibition (GI) [17]: Active
IC50 [10]: 10000 nM

Compound: CN(C)c1ccc(NC(=O)NCCCCCCC(=O)NO)cc1
IC50 [12]: 450 nM
IC50 [13]: 175 nM
fold change (FC) [22]: 5.5
IC50 [14]: 300 nM
IC50 [15]: 185 nM
IC50 [23]: 125 nM
fold change (FC) [24]: 3.5
IC50 [20]: 250 nM
IC50 [25]: 250 nM

From ChEMBL document CHEMBL3880414, “Isoform Selective HDAC Inhibitors” (2010)
